From patent US12122763B2, “Substituted piperidines for androgen receptor degradation” (UBIX THERAPEUTICS, INC., priority 2020, dated 2024)

Target: T1, Androgen Receptor (AR) protein (Homo sapiens, UniProt P10275, T878A)
T1 construct: endogenous in cells; host or cells: LNCaP
Test: Androgen Receptor (AR) protein degradation assay in LNCaP cells, western blotting
Format: cell-based
Details: 20 h; for inhibition at 0.01 µM: 0.01 μM compound; for inhibition at 0.1 µM: 0.1 μM compound; for inhibition at 1 µM: 1 μM compound
Procedure, shortened: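 LNCaP prostate cancer cells were cultured 3 days, then treated with compound for 20 h. Lysates in 1% SDS buffer were normalised by BCA, and 8 μg protein was run on 4–12% Bis-Tris gels. AR was immunoblotted with chemiluminescence, using GAPDH/β-actin as loading controls.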

T1 sequence (P10275 whole entry T878A): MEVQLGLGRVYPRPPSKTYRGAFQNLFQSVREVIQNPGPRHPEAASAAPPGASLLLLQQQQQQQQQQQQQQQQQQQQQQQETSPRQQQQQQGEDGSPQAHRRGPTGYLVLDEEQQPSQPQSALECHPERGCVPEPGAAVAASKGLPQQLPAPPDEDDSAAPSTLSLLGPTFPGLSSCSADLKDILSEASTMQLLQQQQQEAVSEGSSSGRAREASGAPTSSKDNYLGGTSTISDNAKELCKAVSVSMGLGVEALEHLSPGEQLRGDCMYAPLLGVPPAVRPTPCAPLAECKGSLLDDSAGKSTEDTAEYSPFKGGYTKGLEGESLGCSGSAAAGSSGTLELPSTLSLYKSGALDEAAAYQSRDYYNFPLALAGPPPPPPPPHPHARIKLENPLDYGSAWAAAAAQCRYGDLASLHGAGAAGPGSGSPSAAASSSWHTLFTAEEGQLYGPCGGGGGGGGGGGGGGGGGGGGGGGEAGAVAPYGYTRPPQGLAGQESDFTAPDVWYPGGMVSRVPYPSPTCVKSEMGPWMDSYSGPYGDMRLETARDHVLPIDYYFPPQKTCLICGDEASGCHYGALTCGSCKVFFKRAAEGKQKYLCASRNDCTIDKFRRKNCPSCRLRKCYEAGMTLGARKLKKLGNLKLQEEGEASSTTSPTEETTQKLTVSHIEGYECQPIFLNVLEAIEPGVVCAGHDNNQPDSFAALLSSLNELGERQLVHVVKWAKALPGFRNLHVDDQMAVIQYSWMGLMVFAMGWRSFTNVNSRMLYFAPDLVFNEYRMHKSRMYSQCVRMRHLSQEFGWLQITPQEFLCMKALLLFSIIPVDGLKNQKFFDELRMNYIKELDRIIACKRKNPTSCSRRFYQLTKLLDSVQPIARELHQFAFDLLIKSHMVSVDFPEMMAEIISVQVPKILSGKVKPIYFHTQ
T1 sequence (Q96SW2 whole entry partner): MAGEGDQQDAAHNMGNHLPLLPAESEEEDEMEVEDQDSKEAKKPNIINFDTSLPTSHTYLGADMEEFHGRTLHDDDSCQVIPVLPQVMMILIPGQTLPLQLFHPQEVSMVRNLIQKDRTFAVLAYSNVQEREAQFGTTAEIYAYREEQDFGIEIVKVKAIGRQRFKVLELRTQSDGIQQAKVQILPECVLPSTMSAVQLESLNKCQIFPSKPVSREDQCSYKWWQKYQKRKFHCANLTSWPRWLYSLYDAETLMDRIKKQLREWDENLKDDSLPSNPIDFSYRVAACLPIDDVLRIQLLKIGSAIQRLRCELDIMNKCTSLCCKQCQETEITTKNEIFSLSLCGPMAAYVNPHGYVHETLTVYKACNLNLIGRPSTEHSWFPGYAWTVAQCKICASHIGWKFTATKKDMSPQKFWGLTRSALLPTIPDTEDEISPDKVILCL

Row | SMILES | inhibition at 0.01 µM [%] | inhibition at 0.1 µM [%] | inhibition at 1 µM [%] | inhibition at 10 µM (10 μM compound) [%]
1 | N#Cc1ccc(N2CCC(C(=O)Nc3ccc(N4CCC(CN5CCN(C6CN(c7ccc8c(c7)C(=O)N(C7CCC(=O)NC7=O)C8=O)C6)CC5)CC4)cn3)CC2)cc1C(F)(F)F (stereo not shown) [Example 35, 1-(4-cyano-3-(trifluoromethyl)phenyl)-N-(5-(4-((4-(1-(2-(2,6-dioxopiperidin-3-yl)-1,3-dioxoisoindolin-5-yl)azetidin-3-yl)piperazin-1-yl)methyl)piperidin-1-yl)pyridin-2-yl)piperidine-4-carboxamide] | 71 | 97 | 95 | –
2 | N#Cc1ccc(N2CCC(F)(C(=O)Nc3ccc(N4CCC(CN5CCN(CC6CCN(c7ccc8c(c7)C(=O)N(C7CCC(=O)NC7=O)C8=O)CC6)CC5)CC4)cn3)CC2)cc1C(F)(F)F (stereo not shown) [Example 8, 1-(4-cyano-3-(trifluoromethyl)phenyl)-N-(5-(4-((4-((1-(2-(2,6-dioxopiperidin-3-yl)-1,3-dioxoisoindolin-5-yl)piperidin-4-yl)methyl)piperazin-1-yl)methyl)piperidin-1-yl)pyridin-2-yl)-4-fluoropiperidine-4-carboxamide] | 37 | 87 | 95 | –
3 | N#Cc1ccc(N2CCC(C(=O)Nc3ccc(N4CCC(CN5CCN(CC6CN(c7ccc8c(c7)C(=O)N(C7CCC(=O)NC7=O)C8=O)C6)CC5)CC4)cn3)CC2)cc1C(F)(F)F (stereo not shown) [Example 11, 1-(4-cyano-3-(trifluoromethyl)phenyl)-N-(5-(4-((4-((1-(2-(2,6-dioxopiperidin-3-yl)-1,3-dioxoisoindolin-5-yl)azetidin-3-yl)methyl)piperazin-1-yl)methyl)piperidin-1-yl)pyridin-2-yl)piperidine-4-carboxamide] | 76 | 97 | 97 | 93
4 | N#Cc1ccc(N2CCC(C(=O)Nc3ccc(N4CCC5(CC4)CN(CC4CCN(c6ccc7c(c6)C(=O)N(C6CCC(=O)NC6=O)C7=O)CC4)C5)cn3)CC2)cc1C(F)(F)F (stereo not shown) [Example 127, 1-(4-cyano-3-(trifluoromethyl)phenyl)-N-(5-(2-((1-(2-(2,6-dioxopiperidin-3-yl)-1,3-dioxoisoindolin-5-yl)piperidin-4-yl)methyl)-2,7-diazaspiro[3.5]nonan-7-yl)pyridin-2-yl)piperidine-4-carboxamide] | 34 | 52 | 66 | –
5 | N#Cc1ccc(N2CCC(C(=O)Nc3ccc(N4CC(CN5CCC(COc6ccc7c(c6)C(=O)N(C6CCC(=O)NC6=O)C7=O)CC5)C4)cn3)CC2)cc1C(F)(F)F (stereo not shown) [Example 149, 1-(4-cyano-3-(trifluoromethyl)phenyl)-N-(5-(3-((4-(((2-(2,6-dioxopiperidin-3-yl)-1,3-dioxoisoindolin-5-yl)oxy)methyl)piperidin-1-yl)methyl)azetidin-1-yl)pyridin-2-yl)piperidine-4-carboxamide] | 56 | 97 | 97 | –
6 | N#Cc1ccc(N2CCC(C(=O)Nc3ccc(N4CCC(CN5CCN(C[C@H]6CCN(c7ccc8c(c7)C(=O)N(C7CCC(=O)NC7=O)C8=O)C6)CC5)CC4)cc3)CC2)cc1C(F)(F)F (stereo partly drawn) [Example 22, 1-(4-cyano-3-(trifluoromethyl)phenyl)-N-(4-(4-((4-(((3R)-1-(2-(2,6-dioxopiperidin-3-yl)-1,3-dioxoisoindolin-5-yl)pyrrolidin-3-yl)methyl)piperazin-1-yl)methyl)piperidin-1-yl)phenyl)piperidine-4-carboxamide] | 1 | 24 | 49 | –
7 | N#Cc1ccc(N2CCC(C(=O)Nc3ccc(N4CCC(CN5CC[C@@H](CN6CCN(c7ccc8c(c7)C(=O)N(C7CCC(=O)NC7=O)C8=O)CC6)C5)CC4)cn3)CC2)cc1C(F)(F)F (stereo partly drawn) [Example 83, 1-(4-cyano-3-(trifluoromethyl)phenyl)-N-(5-(4-(((3R)-3-((4-(2-(2,6-dioxopiperidin-3-yl)-1,3-dioxoisoindolin-5-yl)piperazin-1-yl)methyl)pyrrolidin-1-yl)methyl)piperidin-1-yl)pyridin-2-yl)piperidine-4-carboxamide] | 25 | 87 | 96 | –
8 | N#Cc1ncc(N2CCC(C(=O)Nc3ccc(N4CCC(CN5CC6(CCN(c7ccc8c(c7)CN(C7CCC(=O)NC7=O)C8=O)CC6)C5)CC4)cn3)CC2)cc1C(F)(F)F (stereo not shown) [Example 137, 1-(6-cyano-5-(trifluoromethyl)pyridin-3-yl)-N-(5-(4-((7-(2-(2,6-dioxopiperidin-3-yl)-1-oxoisoindolin-5-yl)-2,7-diazaspiro[3.5]nonan-2-yl)methyl)piperidin-1-yl)pyridin-2-yl)piperidine-4-carboxamide] | 46 | 86 | 82 | –
9 | N#Cc1ccc(N2CCC(C(=O)Nc3ccc(N4CCC(CN5CCN(C[C@H]6CCCN(c7ccc8c(c7)C(=O)N(C7CCC(=O)NC7=O)C8=O)C6)CC5)CC4)cn3)CC2)cc1C(F)(F)F (stereo partly drawn) [Example 16, 1-(4-cyano-3-(trifluoromethyl)phenyl)-N-(5-(4-((4-(((3R)-1-(2-(2,6-dioxopiperidin-3-yl)-1,3-dioxoisoindolin-5-yl)piperidin-3-yl)methyl)piperazin-1-yl)methyl)piperidin-1-yl)pyridin-2-yl)piperidine-4-carboxamide] | 50 | 94 | 97 | –
10 | N#Cc1ccc(N2CCC(C(=O)Nc3ccc(N4CC5(CCN(C[C@@H]6CCN(c7ccc8c(c7)C(=O)N(C7CCC(=O)NC7=O)C8=O)C6)CC5)C4)cn3)CC2)cc1C(F)(F)F (stereo partly drawn) [Example 126, 1-(4-cyano-3-(trifluoromethyl)phenyl)-N-(5-(7-(((3S)-1-(2-(2,6-dioxopiperidin-3-yl)-1,3-dioxoisoindolin-5-yl)pyrrolidin-3-yl)methyl)-2,7-diazaspiro[3.5]nonan-2-yl)pyridin-2-yl)piperidine-4-carboxamide] | 51 | 89 | 96 | –
11 | N#Cc1ccc(N2CCC(C(=O)Nc3ccc(N4CCC(CN5CC(N6CCN(c7ccc8c(n7)CN(C7CCC(=O)NC7=O)C8=O)CC6)C5)CC4)cn3)CC2)cc1C(F)(F)F (stereo not shown) [Example 78, 1-(4-cyano-3-(trifluoromethyl)phenyl)-N-(5-(4-((3-(4-(6-(2,6-dioxopiperidin-3-yl)-5-oxo-6,7-dihydro-5H-pyrrolo[3,4-b]pyridin-2-yl)piperazin-1-yl)azetidin-1-yl)methyl)piperidin-1-yl)pyridin-2-yl)piperidine-4-carboxamide] | 49 | 88 | 71 | –
12 | N#Cc1ccc(N2CCC(C(=O)Nc3ccc(CC4CCN(CC5CCN(c6ccc7c(c6)C(=O)N(C6CCC(=O)NC6=O)C7=O)CC5)CC4)cn3)CC2)cc1C(F)(F)F (stereo not shown) [Example 164, 1-(4-cyano-3-(trifluoromethyl)phenyl)-N-(5-((1-((1-(2-(2,6-dioxopiperidin-3-yl)-1,3-dioxoisoindolin-5-yl)piperidin-4-yl)methyl)piperidin-4-yl)methyl)pyridin-2-yl)piperidine-4-carboxamide] | 79 | 96 | 97 | –
13 | C[C@@H]1CN(C2CN(c3ccc4c(c3)C(=O)N(C3CCC(=O)NC3=O)C4=O)C2)CCN1CC1CCN(c2ccc(NC(=O)C3CCN(c4ccc(C#N)c(C(F)(F)F)c4)CC3)nc2)CC1 (stereo partly drawn) [Example 41, 1-(4-cyano-3-(trifluoromethyl)phenyl)-N-(5-(4-(((2R)-4-(1-(2-(2,6-dioxopiperidin-3-yl)-1,3-dioxoisoindolin-5-yl)azetidin-3-yl)-2-methylpiperazin-1-yl)methyl)piperidin-1-yl)pyridin-2-yl)piperidine-4-carboxamide] | 62 | 93 | 86 | –
14 | CC1(CN2CCC(Oc3ccc(NC(=O)C4CCN(c5ccc(C#N)c(C(F)(F)F)c5)CC4)nc3)CC2)CN(c2ccc3c(c2)C(=O)N(C2CCC(=O)NC2=O)C3=O)C1 (stereo not shown) [Example 172, 1-(4-cyano-3-(trifluoromethyl)phenyl)-N-(5-((1-((1-(2-(2,6-dioxopiperidin-3-yl)-1,3-dioxoisoindolin-5-yl)-3-methylazetidin-3-yl)methyl)piperidin-4-yl)oxy)pyridin-2-yl)piperidine-4-carboxamide] | 56 | 91 | 91 | –
15 | N#Cc1ncc(N2CCC(C(=O)Nc3ccc(N4CCC(CN5CC6(CCN(c7ccc8c(c7)C(=O)N(C7CCC(=O)NC7=O)C8=O)CC6)C5)CC4)cn3)CC2)cc1C(F)(F)F (stereo not shown) [Example 57, 1-(6-cyano-5-(trifluoromethyl)pyridin-3-yl)-N-(5-(4-((7-(2-(2,6-dioxopiperidin-3-yl)-1,3-dioxoisoindolin-5-yl)-2,7-diazaspiro[3.5]nonan-2-yl)methyl)piperidin-1-yl)pyridin-2-yl)piperidine-4-carboxamide] | 43 | 85 | 96 | –
16 | N#Cc1ccc(N2CCC(C(=O)Nc3ccc(N4CCN(CCC5CCN(c6ccc7c(c6)C(=O)N(C6CCC(=O)NC6=O)C7=O)CC5)CC4)cn3)CC2)cc1Cl (stereo not shown) [Example 120, 1-(3-chloro-4-cyanophenyl)-N-(5-(4-(2-(1-(2-(2,6-dioxopiperidin-3-yl)-1,3-dioxoisoindolin-5-yl)piperidin-4-yl)ethyl)piperazin-1-yl)pyridin-2-yl)piperidine-4-carboxamide] | 0 | 88 | 96 | –
